Measurements from patent publication US20210403485A1, “PYRAZOLOPYRIMIDINE DERIVATIVE AS SELECTIVE TRK INHIBITOR” (SHANDONG LUYE PHARMACEUTICAL CO., LTD., priority 2018, published 2021).
Like-named read-outs stand apart in the source and are kept apart here.

Experiments:
ALK = target: T1, ALK (Homo sapiens, UniProt Q9UM73); assay: Kinase inhibitory activity (33P-ATP, filtration-binding method, Reaction Biology Corp.); assay type: biochemical; details: read-out: Half maximal inhibitory concentration IC50 for kinases, ALK
T1 construct: purchased Reaction Biology Corp
T1 sequence (Q9UM73 19-1620): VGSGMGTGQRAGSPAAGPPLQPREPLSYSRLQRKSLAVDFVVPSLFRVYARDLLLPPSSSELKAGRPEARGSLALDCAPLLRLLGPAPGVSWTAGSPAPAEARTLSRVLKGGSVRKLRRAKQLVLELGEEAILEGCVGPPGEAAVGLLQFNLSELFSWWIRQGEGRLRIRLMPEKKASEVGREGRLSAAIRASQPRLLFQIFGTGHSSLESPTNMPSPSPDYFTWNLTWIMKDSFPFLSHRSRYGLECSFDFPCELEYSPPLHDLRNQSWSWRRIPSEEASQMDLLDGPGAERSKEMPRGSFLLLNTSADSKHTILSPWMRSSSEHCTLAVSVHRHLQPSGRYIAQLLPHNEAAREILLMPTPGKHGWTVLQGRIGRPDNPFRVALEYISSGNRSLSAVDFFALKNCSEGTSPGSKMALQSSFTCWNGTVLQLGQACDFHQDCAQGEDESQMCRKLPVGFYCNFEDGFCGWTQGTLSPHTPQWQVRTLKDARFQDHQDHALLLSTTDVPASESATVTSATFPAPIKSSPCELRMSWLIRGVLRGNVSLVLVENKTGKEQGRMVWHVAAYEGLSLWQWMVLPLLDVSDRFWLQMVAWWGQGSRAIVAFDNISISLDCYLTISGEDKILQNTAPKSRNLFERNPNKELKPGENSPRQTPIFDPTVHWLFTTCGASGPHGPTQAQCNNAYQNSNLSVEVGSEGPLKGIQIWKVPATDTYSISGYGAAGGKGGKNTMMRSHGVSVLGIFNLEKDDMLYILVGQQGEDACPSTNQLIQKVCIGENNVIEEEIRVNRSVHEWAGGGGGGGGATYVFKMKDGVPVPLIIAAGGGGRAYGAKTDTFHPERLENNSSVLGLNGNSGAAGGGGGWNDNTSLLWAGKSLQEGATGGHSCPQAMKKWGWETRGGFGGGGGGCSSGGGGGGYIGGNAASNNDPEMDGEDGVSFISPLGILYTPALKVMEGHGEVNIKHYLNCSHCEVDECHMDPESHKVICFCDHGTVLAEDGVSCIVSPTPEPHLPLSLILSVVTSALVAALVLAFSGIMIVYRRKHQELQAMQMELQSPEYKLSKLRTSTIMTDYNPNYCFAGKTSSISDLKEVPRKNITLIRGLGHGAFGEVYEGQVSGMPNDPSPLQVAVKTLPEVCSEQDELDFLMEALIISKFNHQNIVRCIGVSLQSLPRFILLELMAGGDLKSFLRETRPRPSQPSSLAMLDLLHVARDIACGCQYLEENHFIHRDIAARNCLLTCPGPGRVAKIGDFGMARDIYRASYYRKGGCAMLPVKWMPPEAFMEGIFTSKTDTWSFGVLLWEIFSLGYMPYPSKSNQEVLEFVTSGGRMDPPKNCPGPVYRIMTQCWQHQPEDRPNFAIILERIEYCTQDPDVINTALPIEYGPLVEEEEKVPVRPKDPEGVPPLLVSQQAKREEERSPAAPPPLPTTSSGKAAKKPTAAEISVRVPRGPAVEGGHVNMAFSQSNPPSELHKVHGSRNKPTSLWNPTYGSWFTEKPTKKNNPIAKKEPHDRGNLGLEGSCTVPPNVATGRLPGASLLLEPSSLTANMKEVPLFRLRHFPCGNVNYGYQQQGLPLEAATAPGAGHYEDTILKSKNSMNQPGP
Experimental: (§1) The mixture was incubated at room temperature for 20 minutes, added with ^33P-ATP at a certain concentration to start the reaction, and then incubated at room temperature for 120 minutes. Finally, the radioactivity of the reactant was detected by the filtration-binding method. The final kinase activity was expressed as the ratio of the remaining kinase activity in the test sample to the kinase activity of the DMSO control. The dose-response curves were fitted and IC50 values were calculated by GraphPad software.

Ros1 = target: T2, Ros1 (Homo sapiens, UniProt P08922); assay: as above; assay type: biochemical; details: read-out: Half maximal inhibitory concentration IC50 for kinases, Ros1
T2 construct: purchased Reaction Biology Corp
Experimental: as §1

TrkA = target: T3, TrkA (Homo sapiens, UniProt P04629); assay: as above; assay type: biochemical; details: read-out: Half maximal inhibitory concentration IC50 for kinases, TrkA
T3 construct: purchased Reaction Biology Corp
Experimental: as §1

TrkA-G595R = target: T4, TrkA-G595R (Homo sapiens, UniProt P04629, G595R); assay: as above; assay type: biochemical; details: read-out: Half maximal inhibitory concentration IC50 for kinases, TrkA-G595R
T4 construct: purchased Reaction Biology Corp
Experimental: as §1

TrkA-G667C = target: T5, TrkA-G667C (Homo sapiens, UniProt P04629, G667C); assay: as above; assay type: biochemical; details: read-out: Half maximal inhibitory concentration IC50 for kinases, TrkA-G667C
T5 construct: purchased Reaction Biology Corp
T5 sequence (P04629 33-796 G667C): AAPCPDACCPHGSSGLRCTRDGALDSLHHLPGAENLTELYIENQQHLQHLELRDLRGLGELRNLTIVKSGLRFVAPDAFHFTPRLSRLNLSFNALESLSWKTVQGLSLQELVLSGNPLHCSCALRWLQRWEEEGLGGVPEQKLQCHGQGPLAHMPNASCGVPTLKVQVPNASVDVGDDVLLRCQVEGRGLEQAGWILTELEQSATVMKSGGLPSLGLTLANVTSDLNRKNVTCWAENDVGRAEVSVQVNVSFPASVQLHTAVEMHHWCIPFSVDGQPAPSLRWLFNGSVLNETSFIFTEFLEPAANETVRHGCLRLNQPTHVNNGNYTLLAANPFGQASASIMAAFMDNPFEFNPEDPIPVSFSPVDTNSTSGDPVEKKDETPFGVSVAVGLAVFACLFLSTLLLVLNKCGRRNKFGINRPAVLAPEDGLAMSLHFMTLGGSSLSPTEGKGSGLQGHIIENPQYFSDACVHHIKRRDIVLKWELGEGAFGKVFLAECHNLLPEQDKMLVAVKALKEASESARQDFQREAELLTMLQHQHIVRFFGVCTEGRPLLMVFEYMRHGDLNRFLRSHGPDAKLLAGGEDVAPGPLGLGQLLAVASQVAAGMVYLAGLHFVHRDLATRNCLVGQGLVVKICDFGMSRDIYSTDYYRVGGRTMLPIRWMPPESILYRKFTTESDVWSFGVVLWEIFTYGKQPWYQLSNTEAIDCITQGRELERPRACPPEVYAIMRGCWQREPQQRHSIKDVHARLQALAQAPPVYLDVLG
Experimental: as §1

TrkC = target: T6, TrkC (Homo sapiens, UniProt Q16288); assay: as above; assay type: biochemical; details: read-out: Half maximal inhibitory concentration IC50 for kinases, TrkC
T6 construct: purchased Reaction Biology Corp
Experimental: as §1

Ba/F3 LMNA-NTRK1-F589L = target: T7, Ba/F3 LMNA-NTRK1-F589L (Homo sapiens, UniProt P04629, F589L, cells depend on it); assay: Inhibitory activity against cell proliferation (CellTiter-Glo, 72 hours); assay type: cell-based; details: read-out: Half maximal inhibitory concentration IC50 of cells, Ba/F3 LMNA-NTRK1-F589L
T7 construct: fused on or other part: N-terminal part of LMNA as fusion partner (part of the key); P02545 (Prelamin-A/C)
Experimental: (§2) Adenosine Triphosphate (ATP) is an energy carrier commonly used in various life activities in nature, and is the minimum unit for energy storage and transfer. The CellTiter-Glo™ cell viability assay kit uses luciferase as an assay agent, which requires the involvement of ATP in luminescence. The CellTiter-Glo™ reagent is added into cell culture medium to measure the luminescence value. The luminescence signal is directly proportional to the amount of ATP in the system, and the ATP is positively correlated with the number of viable cells. Therefore, the proliferation of cells can be detected by detecting the ATP content using the CellTiter-Glo kit.
(§3) a) Cells in the logarithmic growth phase were collected and counted using a […]. The cell viability was detected by the trypan blue exclusion method, and the cell viability was kept over 90%.
(§4) b) The cell concentration was adjusted; 90 μL of the cell suspension was added to a 96-well plate.
(§5) a) A 10-fold compound solution was prepared, with the highest concentration being 10 μM (a total of 9 concentrations, 3-fold dilution). 10 μL of compound solution was added to each well of a 96-well plate inoculated with cells, and three duplicate wells were set for each compound concentration.
(§6) a) The CTG reagent was thawed and the cell plate was equilibrated to room temperature for 30 minutes.
(§7) b) An equal volume of CTG solution was added to each well.
(§8) c) The plate was shaken on an orbital shaker for 5 minutes to lyse the cells.
(§9) d) The cell plate was placed at room temperature for 20 minutes to stabilize the luminescence signal.
(§10) e) The luminescence value was read.
(§11) The data were analyzed using GraphPad Prism 5.0 software, fitted with nonlinear S-curve regression to give dose-response curves, and IC50 values were calculated therefrom.

Ba/F3 LMNA-NTRK1-WT = target: T8, Ba/F3 LMNA-NTRK1-WT (Homo sapiens, UniProt P04629); assay: as above; assay type: cell-based; details: read-out: Half maximal inhibitory concentration IC50 of cells, Ba/F3 LMNA-NTRK1-WT
T8 construct: fused on or other part: N-terminal part of LMNA as fusion partner (part of the key); P02545 (Prelamin-A/C)
Experimental: as §2, §3, §4, §5, §6, §7, §8, §9, §10, §11

BaF3 ETV6-NTRK3-WT = target: T9, BaF3 ETV6-NTRK3-WT (Homo sapiens, UniProt Q16288); assay: as above; assay type: cell-based; details: read-out: Half maximal inhibitory concentration IC50 of cells, BaF3 ETV6-NTRK3-WT
T9 construct: fused on or other part: N-terminal part of ETV6 (TEL) as fusion partner (part of the key); P41212 (Transcription factor ETV6)
Experimental: as §2, §3, §4, §5, §6, §7, §8, §9, §10, §11

BaF3 LMNA-NTRK1-G595R = target: T10, BaF3 LMNA-NTRK1-G595R (Homo sapiens, UniProt P04629, G595R, cells depend on it); assay: as above; assay type: cell-based; details: read-out: Half maximal inhibitory concentration IC50 of cells, BaF3 LMNA-NTRK1-G595R
T10 construct: fused on or other part: N-terminal part of LMNA as fusion partner (part of the key); P02545 (Prelamin-A/C)
T10 sequence (P04629 whole entry G595R, the tested form may be a part): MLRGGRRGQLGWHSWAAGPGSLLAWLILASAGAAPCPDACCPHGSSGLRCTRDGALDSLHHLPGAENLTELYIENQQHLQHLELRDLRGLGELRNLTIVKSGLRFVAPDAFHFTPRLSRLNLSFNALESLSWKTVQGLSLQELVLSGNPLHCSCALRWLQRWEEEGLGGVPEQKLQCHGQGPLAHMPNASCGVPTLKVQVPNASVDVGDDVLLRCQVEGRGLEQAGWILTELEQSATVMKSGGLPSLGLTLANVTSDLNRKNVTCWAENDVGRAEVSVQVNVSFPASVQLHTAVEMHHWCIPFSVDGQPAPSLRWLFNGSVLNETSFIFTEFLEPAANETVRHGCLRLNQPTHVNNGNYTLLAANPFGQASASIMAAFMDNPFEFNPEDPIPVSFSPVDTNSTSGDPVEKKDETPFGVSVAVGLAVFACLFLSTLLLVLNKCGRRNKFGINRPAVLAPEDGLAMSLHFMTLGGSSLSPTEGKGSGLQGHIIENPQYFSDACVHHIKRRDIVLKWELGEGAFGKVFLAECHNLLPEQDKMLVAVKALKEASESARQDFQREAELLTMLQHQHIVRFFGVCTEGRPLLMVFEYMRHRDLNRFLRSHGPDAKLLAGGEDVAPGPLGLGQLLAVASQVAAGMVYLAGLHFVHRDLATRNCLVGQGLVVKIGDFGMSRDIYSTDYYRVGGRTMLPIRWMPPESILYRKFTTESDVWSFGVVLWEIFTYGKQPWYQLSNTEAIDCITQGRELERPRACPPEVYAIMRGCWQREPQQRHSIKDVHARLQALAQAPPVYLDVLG
Experimental: as §2, §3, §4, §5, §6, §7, §8, §9, §10, §11

BaF3 LMNA-NTRK1-G667A = target: T11, BaF3 LMNA-NTRK1-G667A (Homo sapiens, UniProt P04629, G667A, cells depend on it); assay: as above; assay type: cell-based; details: read-out: Half maximal inhibitory concentration IC50 of cells, BaF3 LMNA-NTRK1-G667A
T11 construct: fused on or other part: N-terminal part of LMNA as fusion partner (part of the key); P02545 (Prelamin-A/C)
T11 sequence (P04629 whole entry G667A, the tested form may be a part): as the sequence (P04629 whole entry G595R, the tested form may be a part) above, with R595G, G667A counted along it
Experimental: as §2, §3, §4, §5, §6, §7, §8, §9, §10, §11

BaF3 ETV6-NTRK3-G623R = target: T12, BaF3 ETV6-NTRK3-G623R (Homo sapiens, UniProt Q16288, G623R, cells depend on it); assay: as above; assay type: cell-based; details: read-out: Half maximal inhibitory concentration IC50 of cells, BaF3 ETV6-NTRK3-G623R
T12 construct: fused on or other part: N-terminal part of ETV6 (TEL) as fusion partner (part of the key); P41212 (Transcription factor ETV6)
T12 sequence (Q16288 whole entry G623R, the tested form may be a part): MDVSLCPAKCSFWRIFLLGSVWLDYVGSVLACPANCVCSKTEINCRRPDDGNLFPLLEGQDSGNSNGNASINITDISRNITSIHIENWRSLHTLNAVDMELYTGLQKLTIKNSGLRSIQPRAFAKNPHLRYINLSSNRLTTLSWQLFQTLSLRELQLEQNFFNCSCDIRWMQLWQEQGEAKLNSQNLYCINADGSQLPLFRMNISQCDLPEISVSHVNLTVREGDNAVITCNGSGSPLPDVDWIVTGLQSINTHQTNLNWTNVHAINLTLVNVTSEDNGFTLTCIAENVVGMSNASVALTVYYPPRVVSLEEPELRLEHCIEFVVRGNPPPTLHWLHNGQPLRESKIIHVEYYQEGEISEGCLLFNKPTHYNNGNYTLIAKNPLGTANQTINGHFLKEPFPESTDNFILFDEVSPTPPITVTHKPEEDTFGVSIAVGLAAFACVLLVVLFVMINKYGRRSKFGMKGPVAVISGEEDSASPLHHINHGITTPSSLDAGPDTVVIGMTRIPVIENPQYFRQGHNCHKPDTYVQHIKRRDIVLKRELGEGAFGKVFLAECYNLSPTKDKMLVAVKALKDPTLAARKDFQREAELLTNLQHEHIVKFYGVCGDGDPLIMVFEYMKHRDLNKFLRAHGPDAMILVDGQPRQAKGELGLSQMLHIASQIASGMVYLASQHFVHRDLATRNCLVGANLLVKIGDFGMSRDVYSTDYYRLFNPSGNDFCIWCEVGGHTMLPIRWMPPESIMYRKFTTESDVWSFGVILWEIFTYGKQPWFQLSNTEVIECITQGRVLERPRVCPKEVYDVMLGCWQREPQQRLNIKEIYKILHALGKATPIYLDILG
Experimental: as §2, with “kit. In this test, the cell lines used are Ba/F3 LMNA-NTRK1-WT, Ba/F3 LMNA-NTRK1-F589L, BaF3 LMNA-NTRK1-G595R, BaF3 LMNA-NTRK1-G667A, BaF3 ETV6-NTRK3-WT, BaF3 ETV6-NTRK3-G623R, and Ba/F3 SLC34A2-ROS1-WT stable cell strains, 5000 cells/well.” for “kit.”
as §3, §4
c) Cells in the 96-well plate were incubated overnight at 37° C. with 5% CO2 and 95% humidity.
as §5
b) The cells in the 96-well plate added with compound were incubated for 72 hours at 37° C. with 5% CO2 and 95% humidity, followed by the CTG (CellTiter-Glo) analysis.
as §6, §7, §8, §9, §10, §11

[1] = Pharmacokinetic test of compounds in mice (plasma, LC/MS/MS); assay type: in vivo, male CD-1 mice; details: for Cmax: read-out: Peak concentration Cmax; for AUC(0-t): read-out: Area under the curve AUC0-last
Experimental: (§12) Experimental purpose: male CD-1 mice aged 7-9 weeks were selected as test animals, and the drug concentrations of the compounds in plasma at different time points after single intravenous injection (IV) and intragastric administration (PO) of the compounds were measured by an LC/MS/MS method, so that the pharmacokinetic behavior of the compounds disclosed herein in mice was studied, and the pharmacokinetic characteristic of the compounds was evaluated.
(§13) Drug preparation: the compounds were all prepared into clear solution by taking 5% DMSO+10% solutol+85% water as vehicle, and were used for administration in IV and PO groups. The dose of each compound administered was: IV, 3 mg/kg; PO, 10 mg/kg.

[2] = Pharmacokinetic test of compounds in rats (plasma, LC/MS/MS); assay type: in vivo, male SD rats
Experimental: as §12, with “SD rats” for “CD-1 mice”, “rats” for “mice”
as §13

Ba/F3 SLC34A2-ROS1-WT = target: T13, Ba/F3 SLC34A2-ROS1-WT (Homo sapiens, UniProt P08922); assay: Inhibitory activity against cell proliferation (CellTiter-Glo, 72 hours); assay type: cell-based; details: read-out: Half maximal inhibitory concentration IC50 of cells, Ba/F3 SLC34A2-ROS1-WT
T13 construct: fused on or other part: N-terminal part of SLC34A2 as fusion partner (part of the key); O95436 (Sodium-dependent phosphate transport protein 2B)
Experimental: as §2, §3, §4, §5, §6, §7, §8, §9, §10, §11

[3] = male, CD-1, mouse, plasma, PO, 10 mg/kg

| IC50 (ALK) | IC50 (Ros1) | IC50 (TrkA) | IC50 (TrkA-G595R) | IC50 (TrkA-G667C) | IC50 (TrkC) | GI50 (Ba/F3 LMNA-NTRK1-F589L) | GI50 (Ba/F3 LMNA-NTRK1-WT) | GI50 (BaF3 ETV6-NTRK3-WT) | GI50 (BaF3 LMNA-NTRK1-G595R) | GI50 (BaF3 LMNA-NTRK1-G667A) | GI50 (BaF3 ETV6-NTRK3-G623R) | Apparent clearance Cl ([1]; IV, 3 mg/kg) | GI50 (Ba/F3 SLC34A2-ROS1-WT) | Structure (SMILES) | other results |
| --- | --- | --- | --- | --- | --- | --- | --- | --- | --- | --- | --- | --- | --- | --- | --- |
| 134 nM | 8.1 nM | 2.7 nM | 2.7 nM | 18.2 nM | 0.3 nM | 37.4 nM | 0.8 nM | 1.5 nM | 1.2 nM | 3.9 nM | 3.2 nM | 0.488 L/h/kg | – | C[C@H]1CNC(=O)c2cnn3ccc(nc23)N2CCOC[C@@H]2c2cc(F)cnc2O1 [WX004B] | Apparent volume of distribution Vd ([1]; IV, 3 mg/kg): 0.60 L/kg; Area under the curve AUC0-last ([1]; IV, 3 mg/kg): 15.393 µM·h; Half-life T1/2 ([1]; IV, 3 mg/kg): 63 min; Area under the curve AUC0-last ([1]; PO, 10 mg/kg): 37.294 µM·h; Bioavailability F % ([1]; PO, 10 mg/kg): 73%; Time to peak Tmax ([1]; PO, 10 mg/kg): 30 min; Cmax ([1]; PO, 10 mg/kg): 11.1 µM; Apparent clearance Cl ([2]; IV, 3 mg/kg): 1.85 L/h/kg; Apparent volume of distribution Vd ([2]; IV, 3 mg/kg): 1.4 L/kg; Area under the curve AUC0-last ([2]; IV, 3 mg/kg): 4.076 µM·h; Half-life T1/2 ([2]; IV, 3 mg/kg): 36 min; Area under the curve AUC0-last ([2]; PO, 10 mg/kg): 4.715 µM·h; Bioavailability F % ([2]; PO, 10 mg/kg): 35%; Time to peak Tmax ([2]; PO, 10 mg/kg): 48 min; Cmax ([2]; PO, 10 mg/kg, read-out: Peak concentration Cmax): 1.77 µM |
| – | – | – | – | – | – | 56.6 nM | 0.7 nM | 2.9 nM | 5.2 nM | 3.8 nM | 11 nM | 0.587 L/h/kg | 246 nM | O=C1N[C@@H]2COC[C@@H]2Oc2ncc(F)cc2C2COCCN2c2ccn3ncc1c3n2 (stereo partly shown) [WX005A] | Vd ([1]; male, CD-1, mouse, plasma, IV, 3 mg/kg, read-out: Apparent volume of distribution Vd): 0.78 L/kg; AUC(0-t) ([1]; male, CD-1, mouse, plasma, IV, 3 mg/kg): 12 µM·h; half-life ([1]; male, CD-1, mouse, plasma, IV, 3 mg/kg, read-out: Half-life T1/2 (converted)): 61.2 min; AUC(0-t) [1, 3]: 21.4 µM·h; bioavailability ([1]; male, CD-1, mouse, plasma, PO, 10 mg/kg, read-out: Bioavailability F %): 54%; Cmax [1, 3]: 7.12 µM; Tmax ([1]; male, CD-1, mouse, plasma, PO, 10 mg/kg, read-out: Time to peak Tmax): 22.8 min |
| 103 nM | 3.1 nM | 4.7 nM | 0.3 nM | 0.5 nM | 0.1 nM | – | – | – | – | – | – | – | – | O=C1N[C@@H]2COC[C@@H]2Oc2ncc(F)cc2[C@H]2COCCN2c2ccn3ncc1c3n2 [WX005A] | – |
| – | – | > 1000 nM | – | – | – | – | – | – | – | – | – | – | – | O=C1N[C@@H]2COC[C@@H]2Oc2ncc(F)cc2[C@@H]2COCCN2c2ccn3ncc1c3n2 [WX005B] | – |
| 901 nM | 2.2 nM | 0.6 nM | 0.2 nM | 0.1 nM | 0.1 nM | 100 nM | 0.9 nM | 4.1 nM | 6.4 nM | 1.2 nM | 13.1 nM | – | 770 nM | C[C@@H]1COC[C@@H]2c3cc(F)cnc3OCC3(CC3)NC(=O)c3cnn4ccc(nc34)N12 [WX007] | – |
| – | – | > 1000 nM | – | – | – | – | – | – | – | – | – | – | – | O=C1NC2(CC2)COc2ncc(F)cc2[C@@H]2CCOCCN2c2ccn3ncc1c3n2 [WX009B] | – |
